The values below come from US20260069610A1, “INHIBITION OF EFFEROCYTOSIS AS A TREATMENT TO PREVENT BONE LOSS AND INCREASE BONE DENSITY AND STRENGTH” (University of Rochester, priority 2022, published 2026).

Each structure is given as a SMILES string. “Also recorded” adds a separate entry of the source.

Data set [1] relates to ST2 cells. As to the kind of experiment: In vitro efferocytosis assay, ST2 cells with end stage neutrophils, flow cytometry. (In general: Flow cytometry measures light scatter and fluorescence of single cells or particles in a stream.)
Experimental: ST2 cells, a bone marrow-derived mesenchymal stromal cell line, were plated at 2×10^4 per cm^2 in αMEM without ascorbic acid (Gibco)+10% FBS+1% pen-strep and incubated in 21% oxygen at 37° C. until 80% confluency. […] End-stage neutrophils were washed with PBS and fluorescently labeled with 20 nM efluro670 (ThermoFischer) according to manufacturer's instructions. Targets (neutrophils or apoptotic lymphocytes) were given in excess (1 MSC: 10 Target) to plated MSCs and incubated for up to 24 h. Cells were then washed 3× with PBS, imaged, and collected for flow cytometry analysis.
The subject of data set [2] is ST2 cells. As to the kind of experiment: Initial toxicity studies in ST2 cells. The format is cell-based, murine. As to conditions: ST2 cells (stromal cell line).
The test system of data set [3] is primary human MSCs. Briefly: Initial toxicity studies in primary human MSCs. In kind it is cell-based.
In data set [4] the test system is primary human MSCs (hMSCs). Briefly: Efferocytosis assay with pharmacological inhibition of mitochondrial fission, hMSCs. As to conditions: pre-treated with 25 μM Mdivi for 1 h, end stage PMN for 24 h. The format is cell-based. On the procedure:
(§1) FIGS. 6A, 6B, and 6C show quantification via flow cytometry of viability, end stage neutrophil (PMNs) engulfment, and efficiency (mean fluorescent intensity, MFI) of hMSCs pre-treated with 25 μM Mdivi for 1 h and then given end stage PMN for 24 h. […] N=3, Mean±SD shown on graphs ** p<0.01, *** p<0.001, (1-test or ANOVA).
Primary human MSCs (hMSCs) cells (Lonza) were plated at 2×10^4 per cm^2 in αMEM+10% FBS+1% pen-strep and incubated in 5% O2/5% CO2/37° C. until 80% confluent. Neutrophils were isolated from human peripheral blood via Mono-Poly resolving medium (MP Biomedicals, Inc) according to manufacturer's instructions and incubated in RPMI+10% FBS+10 mM HEPES overnight (18-20 h) at 37° C./5% CO2 as previously described (Casanova-Acebes M, et al. Cell 2013; 153:1025-35). hMSCs were treated with 25 μM Mdivi for 1 h prior to giving 20 nM efluro670 (ThermoFischer) stained end-stage neutrophils in excess (1:10) for 24 h. Cells were then washed 3× with PBS, imaged, and collected for flow cytometry analysis.
All samples were run on a LSRII flow cytometer: 3 lasers, 355 nm, 488 nm, and 633 nm (BD Biosciences). Analysis was performed using FlowJo version 10.8 (Tree Star). Sorting was done on a FACSAria II with 405-, 488-, 532-, and 633 nm lasers (BD Biosciences). All flow cytometry equipment is housed and quality controlled within the URMC Flow Cytometry core.

Data set [5] concerns primary human MSCs (hMSCs). Briefly: Alkaline phosphatase measurement (osteoblastic differentiation) with inhibition of mitochondrial fission, hMSCs. To be noted: for osteoblastic differentiation potential (alkaline phosphatase) of hMSCs: co-treatment with 25 μM Mdivi and PMN. The format is cell-based. The protocol:
as §1
Cells were washed with PBS 3× and then fixed with formalin for 30 min at room temperature (RT). Following fixation, the cells were washed with water 3× and left to sit for 15 min at RT while preparing alkaline phosphatase (AP) staining. To prepare the AP stain, 5 mg Naphthol AS MX-PO4 was dissolved in 200 μL of N,N-dimethylformamide (DMF), 25 mL 0.2 M Tris pH 8.3, and 25 mL water. Red Violet LB salt (30 mg) was added to solution, vortexed, and filter through 45 μm filter. After incubation with AP stain for 45 min RT, cells were washed with water 3× and then stained with 2.5% silver nitrate for 30 min RT in a ventilated area, then washed with water and air dried. All plates were imaged via light microscopy and quantified for osteoblastic formation using ImageJ software.
Cells that performed efferocytosis in the presence or absence of Mdivi, were washed and stained for AP as described above. Wells were photographed, and images were analyzed using ImageJ for staining intensity.

Data set [6] has as its system macrophages. To be noted: targeting via clodronate; cited from earlier work.

Consider `CN1CCN(Cc2ccc(Nc3ncc(Cl)c(Nc4ccccc4S(=O)(=O)N(C)C)n3)cc2)CC1` [TP0903], for which the “efferocytosis by ST2 cells” value in data set [1] (3 and 24 hrs, pre treated with 100 nM TP0903 for 1 hr, excess (5 PMN: 1 MSC) end stage hPMNs) is “blocks efferocytosis for a short duration”. For the same compound, the “neutrophil uptake by MSCs” value in data set [1] (3 hours after neutrophil addition, flow cytometry) was “significantly reduced”. Further, the toxicity result in data set [2] and in data set [3] was “low toxicity” each time.
Regarding `COc1cc(-n2c(S)nc3ccccc3c2=O)c(Cl)cc1Cl` [Mdivi], in data set [4], the “efficiency (MFI) of efferocytosis by hMSCs” value is listed as “decreased”, the “overall rate of efferocytosis (end stage PMN engulfment) by hMSCs” value is listed as “decreased; also recorded: decreases efferocytic activity in MSCs” and the “viability of hMSCs” value is listed as “without impacting their viability”. In addition, in data set [4] (listed as MDivi), the “overall rate of efferocytosis (end stage PMN engulfment) by hMSCs” value is “decreases human MSC (hMSC) efferocytosis”. Further, the “osteoblastic differentiation (alkaline phosphatase) of hMSCs” value in data set [5] (Mdivi treatment in the absence of PMN) is reported as “trending increase in osteoblastic differentiation; also recorded: increases osteoblastic differentiation independent of efferocytic activity”. Besides, the “osteoblastic differentiation potential (alkaline phosphatase) of hMSCs” value in data set [5] is listed as “rescued the osteoblastic differentiation potential; also recorded: rescues the defect in osteoblastic differentiation”. For the same compound, the “osteoblastic differentiation potential (alkaline phosphatase) of hMSCs” value in data set [5] (listed as MDivi) is listed as “restores MSC osteoblastic differentiation”.
On to `O=P(O)(O)C(Cl)(Cl)P(=O)(O)O` [clodronate], for which the bone loss result in data set [6] is “did not result in bone loss”.
